Earlier results in patent publication US6790668B1, “Monitoring patient compliance and bioavailability of drugs by deproteinizing body fluids” (Fundacao Oswaldo Cruz - Fiocruz, priority 1998, dated 2004).

Legend:
[1] = human body; the rest by the kidneys
[2] = organic solvents; acid pH water

For `CO[C@H]1/C=C/O[C@@]2(C)Oc3c(C)c(O)c4c(O)c(c(/C=N/N5CCN(C)CC5)c(O)c4c3C2=O)NC(=O)/C(C)=C\C=C\[C@H](C)[C@H](O)[C@@H](C)[C@@H](O)[C@@H](C)[C@H](OC(C)=O)[C@@H]1C` [rifampicin], the “Share of the drug eliminated in the bile” value [1] is listed as “about 80%” and the Solubility [2] is listed as “soluble both in organic solvents and in acid pH water”.
